Experiment [1] has as its system GJC. The following applies: cited from earlier work.
In experiment [2] the test system is Cx43. The experiment can be described thus: Cx43 levels and Y247 phosphorylation in LA25 cells treated with ALLN (immunoblot). The following applies: LA25 cells at 35° C. (src active), ALLN 3 h. In kind it is cell-based. As for the experimental part:
FIG. 16. (A) Src activity leads to reduced levels of Cx43 in gap junctions unless rescued by ALLN treatment. LA25 cells grown at 40° C. or 35° C. (permissive) were untreated or treated with ALLN for 3 h and total Cx43 levels were determined by immunoblot. […] Cells grown at 35° C. were treated with ALLN for 3 h or untreated and pY247 and pY265 levels relative to total Cx43 were determined. In both A & B total cell lysates were harvested, blotted and probed (n=4 separate expts).

Experiment [3] addresses T1, Gp140 (Homo sapiens, UniProt Q9H5V8).
T1 construct: endogenous in cells; host or cells: human keratinocytes (HKs)
It is filed as cell-based. The settings on record: keratinocytes, P1C3 15 min, suramin 35 μM.
Method: Zymosan or ActGp140 mAb were added to keratinocytes and incubated (30 min), washed, fixed (2% formaldehyde in cacodylate, 10 min) and permeabilized (0.5% Triton-X100, 5 min).
Human keratinocytes were grown in 30 μM Ca^+2 then treated with zymosan (20 μg/10^6 cells) for 30 min or 2 h, extracted with Triton X-100 (0.5% for 5 min) and fixed and stained with Abs against ZO-1 and afadin (AF-6).
Keratinocytes were treated (2 h) with ActGp140 mAb, washed, extracted with Triton X-100 detergent (0.5%, 5 min, 4° C.), fixed and stained with Abs against the indicated proteins.
Keratinocytes (grown in 30 μM Ca^+2) were untreated or treated with ActGp140 or NActGp140 mAbs for 1.5 hrs, washed, extracted with Triton X-100 (0.5% at 4° C. for 5 min) then stained.
(b-c) anti-Gp140 mAb (P1C3). (d) Same field as c stained with Abs against Gp140pY734.

Experiment [4] has as its target T1, Gp140. The experiment can be described thus: Phosphorylation of Gp140, SFK and PKCδ in keratinocytes (immunoblotting). It is filed as cell-based. The following applies: 5 min. A general note: A western blot detects proteins with antibodies after separation by electrophoresis.
The target in experiment [5] is T1, Gp140. The experiment can be described thus: α-catenin localization in cell-cell contacts of keratinocytes grown in low Ca+2. In kind it is cell-based. The following applies: 30 μM Ca+2, suramin 35 μM, 3 hrs.
Method: FIG. 25. Signals through Gp140/CDCP1 promote α-catenin in cell-cell contacts. Human keratinocytes were grown in low Ca^+2 (30 μM) in order to disassemble adherens junctions that contain cadherins and α-catenin. The keratinocytes were treated without (−Left panel) or with (+Right Panel) Gp140 siRNA to knockdown expression of Gp140. […] Arrows indicate minor subpopulation of cells where Gp140 was not knocked down surrounded by the majority of Gp140 was knocked down.
Signals through Gp140/CDCP1 promote α-catenin in cell-cell contacts. Human keratinocytes were grown in low Ca^+2 (30 μM) in order to disassemble adherens junctions that contain cadherins and α-catenin. The keratinocytes were treated without or with Gp140 siRNA to knockdown expression of Gp140. […] Arrows indicate minor subpopulation of cells where Gp140 was not knocked down surrounded by the majority of Gp140 was knocked down.
The target of experiment [6] is T2, Gp140 (Mus musculus, UniProt Q5U462).
T2 construct: from tissue; host or cells: mouse epidermis
T2 sequence (Q5U462 30-833): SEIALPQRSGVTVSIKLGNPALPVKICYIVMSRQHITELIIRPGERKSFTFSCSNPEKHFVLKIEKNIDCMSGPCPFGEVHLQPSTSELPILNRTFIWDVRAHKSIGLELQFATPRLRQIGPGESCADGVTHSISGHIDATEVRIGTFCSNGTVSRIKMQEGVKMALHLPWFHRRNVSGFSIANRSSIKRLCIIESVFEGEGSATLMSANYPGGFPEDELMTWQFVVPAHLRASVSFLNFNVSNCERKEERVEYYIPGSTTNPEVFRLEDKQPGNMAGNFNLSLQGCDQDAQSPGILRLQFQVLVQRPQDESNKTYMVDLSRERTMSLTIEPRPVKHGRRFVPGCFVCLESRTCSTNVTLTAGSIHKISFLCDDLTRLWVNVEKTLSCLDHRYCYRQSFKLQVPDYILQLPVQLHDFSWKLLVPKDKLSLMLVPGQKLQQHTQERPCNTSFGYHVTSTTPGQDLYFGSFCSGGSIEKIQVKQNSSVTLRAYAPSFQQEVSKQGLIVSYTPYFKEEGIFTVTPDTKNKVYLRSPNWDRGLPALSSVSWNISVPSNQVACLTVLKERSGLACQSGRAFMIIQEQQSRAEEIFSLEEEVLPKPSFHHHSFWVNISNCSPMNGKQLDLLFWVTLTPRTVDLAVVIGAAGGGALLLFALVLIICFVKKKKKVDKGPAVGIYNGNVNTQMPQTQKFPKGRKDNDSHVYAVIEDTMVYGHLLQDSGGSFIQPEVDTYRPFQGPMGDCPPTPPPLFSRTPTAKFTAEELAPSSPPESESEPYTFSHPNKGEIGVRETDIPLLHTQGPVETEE
The settings on record: cited from earlier work.

Experiment [7] deals with SFKs. Description: SFK inhibition with PP2 in keratinocytes (Cx43 immunofluorescence, scratch wound). In kind it is cell-based. As for the experimental part:
FIG. 13. […] Keratinocytes were pretreated with PP2 (5 μM, 2 h), scratch wounded and after 12 h were fixed in cold methoano/acetone and processed for immunofluorescence for total Cx43 (green). Cell nuclei were stained with DAPI (blue) and the scratched area is shown by an arrow.

Molecules are shown by their SMILES. Where a SMILES comes first, the peptide text is derived from it. [ ]: non-standard residue; d: D form. Nle = CCCC[C@H](N)C(=O)O

Here are results for 4 compounds from patent US20110091485A1, “MODULATION OF CELL JUNCTIONS” (priority 2007, published 2011).

T1 sequence (Q9H5V8 30-836): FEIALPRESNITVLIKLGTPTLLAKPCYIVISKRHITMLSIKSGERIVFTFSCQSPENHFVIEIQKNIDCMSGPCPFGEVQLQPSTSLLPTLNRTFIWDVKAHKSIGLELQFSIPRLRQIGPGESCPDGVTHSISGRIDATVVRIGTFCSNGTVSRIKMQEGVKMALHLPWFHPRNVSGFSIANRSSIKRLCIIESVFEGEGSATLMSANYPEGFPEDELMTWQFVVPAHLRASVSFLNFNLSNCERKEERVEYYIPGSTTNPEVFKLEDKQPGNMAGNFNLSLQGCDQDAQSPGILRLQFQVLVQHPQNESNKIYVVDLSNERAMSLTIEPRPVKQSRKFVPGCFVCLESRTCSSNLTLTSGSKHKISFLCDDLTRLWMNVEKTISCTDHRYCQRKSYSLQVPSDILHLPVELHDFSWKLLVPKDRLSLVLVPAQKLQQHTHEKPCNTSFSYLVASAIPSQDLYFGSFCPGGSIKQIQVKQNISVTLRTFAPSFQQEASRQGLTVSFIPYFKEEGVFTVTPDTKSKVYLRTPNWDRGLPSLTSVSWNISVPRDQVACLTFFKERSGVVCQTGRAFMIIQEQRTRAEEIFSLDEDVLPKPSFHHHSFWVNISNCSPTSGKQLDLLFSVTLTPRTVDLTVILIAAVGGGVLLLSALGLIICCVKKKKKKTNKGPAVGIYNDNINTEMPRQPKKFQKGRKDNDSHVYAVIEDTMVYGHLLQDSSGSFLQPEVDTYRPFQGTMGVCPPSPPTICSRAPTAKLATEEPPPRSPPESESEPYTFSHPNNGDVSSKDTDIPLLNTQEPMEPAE

For `CC1(C)[C@@H](OC(=O)CCC(=O)O)CC[C@]2(C)[C@H]3C(=O)C=C4[C@@H]5C[C@@](C)(C(=O)O)CC[C@]5(C)CC[C@@]4(C)[C@]3(C)CC[C@@H]12` [CBX, 18α-carbenoxalone], in experiment [1], the wound outgrowth result was “prevents wound outgrowth when applied before, but not after wounding”.
As for `CCCC[C@@H](C=O)NC(=O)[C@H](CC(C)C)NC(=O)[C@H](CC(C)C)NC(C)=O` [ALLN] (Ac-Leu-Leu-[Nle]-aldehyde), the “Y247 phosphorylation relative to total Cx43” value in experiment [2] is listed as “increases the levels of Y247 phosphorylation relative to total Cx43”.
As for `Cc1ccc(C(=O)Nc2ccc(S(=O)(=O)O)c3cc(S(=O)(=O)O)cc(S(=O)(=O)O)c23)cc1NC(=O)c1cccc(NC(=O)Nc2cccc(C(=O)Nc3cc(C(=O)Nc4ccc(S(=O)(=O)O)c5cc(S(=O)(=O)O)cc(S(=O)(=O)O)c45)ccc3C)c2)c1` [suramin], in experiment [3], the “phosphorylation and assembly of Gp140 in detergent-resistant membrane clusters in cell-cell contacts” value was “increases phosphorylation and assembly of Gp140 in detergent-resistant Gp140 membrane clusters”. Further, the “PKC activity determined by phosphorylation of VaspS157” value in experiment [4] is recorded as “increased”. Moreover, the “phosphorylation of Gp140Y734, SFKY416 and PKCdY311 by SFKs” value in experiment [4] (suramin 35 μM) is listed as “increased phosphorylation”. In experiment [5], the “α-catenin in cell-cell contacts” value is recorded as “dramatic accumulation of α-catenin in cell-cell contacts”. Further, the “phosphorylation and cleavage of Gp140 in mouse epidermis” value in experiment [6] is “induces phosphorylation and proteolytic cleavage of Gp140 to p80”.
On to `CC(C)(C)n1nc(-c2ccc(Cl)cc2)c2c(N)ncnc21` [PP2], for which the “gap junctional density at wound cell-cell interfaces (total Cx43)” value in experiment [7] (PP2 5 μM, 2 h pretreatment, scratch wound, 12 h) is given as “increases gap junctional density at wound cell-cell interfaces”. Moreover, the “cell surface Gp140, junctional Cx43 and dye transfer” value in experiment [7] (keratinocytes) was “dramatic increases in cell surface Gp140 and junctional Cx43 and dye transfer”.
